Assay [1] relates to Pt-(GpG) adducts in DNA of CTC and CD45-positive cells. The assay can be described thus: Pt-(GpG) DNA adducts in CD45/CD15-depleted mononuclear cell fraction exposed to cisplatin ex vivo. In kind it is cell-based, human. The following applies: after exposure to cisplatin, NSCLC patient blood. From the text: Pt-(GpG) intrastrand crosslinks are the major DNA adducts induced by platinum-based anticancer drugs. […] Pt-(GpG) DNA adducts in CTCs treated with cisplatin in medium upfront to systemic therapy from patients with advanced non-small-cell lung cancer (NSCLC) was studied.
Blood was drawn before systemic treatment and the CD45/CD15-depleted fraction of mononuclear cells was exposed to cisplatin, verified for the presence of CTC by pan-cytokeratin (pCK) staining and immunoanalysed for the level of Pt-(GpG) in DNA. Pt-(GpG) adducts can be detected in CTC from NSCLC patients and assessing their kinetics constitutes a clinically feasible biomarker for response prediction and dose individualisation of platinum-based chemotherapy.
Epithelial CTCs were detected that stained positive for DAPI and pCK and negative for CD45. The ratio of pCK− positive to CD45-positive cells in the depleted fractions was in the range of […], resulting in up to three CTC per cell spot on the slides. […]
The measurement of Pt-(GpG) adducts in the nuclear DNA of short term-exposed CTC depict a characteristic time course of formation and removal. […] The degree of association was calculated between these three values of ex vivo adduct persistence in CTC from 11 patients with their therapeutic response using the Spearman's rho rank correlation coefficient. […]

The subject of assay [2] is Pt-(GpG) in the DNA of CTC. The assay can be described thus: Pt-(GpG) adduct levels in CTC after cisplatin infusion versus ex vivo exposure. The following applies: clinical dose 50 mgm_2 (1.4 mg kg_1 body weight); blood at baseline and 2, 4 and 24 h after infusion; same patient. Also on record: species or system human. The procedure:
To test whether adduct kinetics measured in tumour cells after ex vivo exposure to cisplatin mirror the formation and repair rates for Pt-(GpG) in the DNA of those cells in vivo during systemic treatment, blood samples from the same patient were analysed under both the conditions.

`N.N.[Cl][Pt][Cl]` [cisplatin]: in assay [1], the “levels of DNA platination in CD45-positive cells as compared with CTC (fold lower)” value was roughly 10 fold. For the same compound, the “CTC adduct levels after clinical dose versus ex vivo exposure” value in assay [2] was “comparable to a short time ex vivo exposure with 20 mgml_1 for 2 h”.

The values are drawn from US20240302376A1, “METHOD FOR IDENTIFYING SUBGROUPS OF CIRCULATING TUMOR CELLS (CTCS) IN THE CTC POPULATION OF A BIOLOGICAL SAMPLE” (priority 2012, published 2024).
